In patent US7772241B2, “Variolin derivatives and their use as antitumor agents” (Pharma Mar S.A., priority 2001, dated 2010):
Like-named read-outs stand apart in the source and are kept apart here.

Experiments:
[1] = test system: SK-MEL-28; test: Inhibition of cells growth by colorimetric (SRB) assay, SK-MEL-28; conditions: for GI50 / CC50: Homo sapiens, SK-MEL-28, 48 h; for GI50: read-out: GI50 MEL-28, SRB assay, 48 hours exposure; for TGI MEL-28: SRB assay, 48 hours exposure
Procedure, shortened: (§1)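 Human tumour cells seeded at 5×10^3/well in RPMI 1640 10% FBS, attached 18 h, then exposed 48 h to samples at 10 to 10^−8 μg/ml in DMSO/EtOH/PBS (0.5:0.5:99). Growth read by SRB staining after TCA fixation, OD 490 nm, triplicate wells; GI, TGI and LC derived.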

[2] = test system: IGROV-ET; test: Inhibition of cells growth by colorimetric (SRB) assay, IGROV-ET; conditions: for GI50 / CC50: Homo sapiens, 48 h; for GI50: read-out: GI50 IGROV-ET, SRB assay, 48 hours exposure; for TGI IGROV-ET: SRB assay, 48 hours exposure
Procedure, shortened: as §1

[3] = test system: IGROV-1; test: Inhibition of cells growth by colorimetric (SRB) assay, IGROV-1; conditions: for GI50 / CC50: Homo sapiens, IGROV-1, 48 h; for GI50: read-out: GI50 IGROV, SRB assay, 48 hours exposure; for TGI IGROV: SRB assay, 48 hours exposure
Procedure, shortened: as §1

[4] = Inhibition of cells growth by colorimetric (SRB) assay, HMEC1
[5] = test system: HMEC1; test: as above; conditions: for GI50: Homo sapiens, HMEC-1, 48 h, read-out: GI50 H-MEC-1, SRB assay, 48 hours exposure; for TGI H-MEC-1: SRB assay, 48 hours exposure
[6] = test system: PANC-1; test: Inhibition of cells growth by colorimetric (SRB) assay, PANC-1; conditions: Homo sapiens, PANC-1, 48 h, read-out: GI50 PANC-1, SRB assay, 48 hours exposure
Procedure, shortened: as §1

[7] = test system: K-562; test: Inhibition of cells growth by colorimetric (SRB) assay, K-562; conditions: for GI50 / CC50: Homo sapiens, K562, 48 h; for GI50: read-out: GI50 K-562, SRB assay, 48 hours exposure; for TGI K-562: SRB assay, 48 hours exposure
Procedure, shortened: as §1

[8] = test system: LNCaP; test: Inhibition of cells growth by colorimetric (SRB) assay, LNCaP; conditions: for GI50 / CC50: Homo sapiens, LNCaP, 48 h; for GI50: read-out: GI50 LN-caP, SRB assay, 48 hours exposure; for TGI LN-caP: SRB assay, 48 hours exposure
Procedure, shortened: as §1

[9] = test system: A-549; test: Inhibition of cells growth by colorimetric (SRB) assay, A-549; conditions: for GI50 / CC50: Homo sapiens, A549, 48 h; for GI50: read-out: GI50 A-549, SRB assay, 48 hours exposure; for TGI A-549: SRB assay, 48 hours exposure
Procedure, shortened: as §1

[10] = test system: SK-BR-3; test: Inhibition of cells growth by colorimetric (SRB) assay, SK-BR-3; conditions: for GI50 / CC50: Homo sapiens, SK-BR-3, 48 h; for GI50: read-out: GI50 SK-BR-3, SRB assay, 48 hours exposure; for TGI SK-BR-3: SRB assay, 48 hours exposure
Procedure, shortened: as §1

[11] = test system: DU-145; test: Inhibition of cells growth by colorimetric (SRB) assay, DU-145; conditions: for GI50 / CC50: Homo sapiens, DU-145, 48 h; for GI50: read-out: GI50 DU-145, SRB assay, 48 hours exposure; for TGI DU-145: SRB assay, 48 hours exposure
Procedure, shortened: as §1

[12] = test system: SK-OV-3; test: Inhibition of cells growth by colorimetric (SRB) assay, SK-OV-3; conditions: for GI50 / CC50: Homo sapiens, SK-OV-3, 48 h; for GI50: read-out: GI50 SKOV-3, SRB assay, 48 hours exposure; for TGI SKOV-3: SRB assay, 48 hours exposure
Procedure, shortened: as §1

[13] = read-out: LC50 MEL-28, SRB assay, 48 hours exposure
[14] = read-out: LC50 IGROV-ET, SRB assay, 48 hours exposure
[15] = read-out: LC50 IGROV, SRB assay, 48 hours exposure
[16] = human, HMEC1 cells, LC50 H-MEC-1, SRB assay, 48 hours exposure
[17] = read-out: LC50 K-562, SRB assay, 48 hours exposure
[18] = read-out: LC50 LN-caP, SRB assay, 48 hours exposure
[19] = read-out: LC50 A-549, SRB assay, 48 hours exposure
[20] = read-out: LC50 SK-BR-3, SRB assay, 48 hours exposure
[21] = read-out: LC50 DU-145, SRB assay, 48 hours exposure
[22] = read-out: LC50 SKOV-3, SRB assay, 48 hours exposure

SMILES | GI50 [1] [µM] | TGI MEL-28 [1] | GI50 [2] [µM] | TGI IGROV-ET [2] | GI50 [3] [µM] | TGI IGROV [3] | GI50 [5] [µM] | GI50 [6] [µM] | GI50 [7] [µM] | TGI K-562 [7] | GI50 [8] [µM] | TGI LN-caP [8] | GI50 [9] [µM] | TGI A-549 [9] | GI50 [10] [µM] | TGI SK-BR-3 [10] | GI50 [11] [µM] | TGI DU-145 [11] | GI50 [12] [µM] | TGI SKOV-3 [12] | also measured
COc1ccc(CNc2ccnc3c2c(-c2ccnc(OC)n2)c2ccnc(NCc4ccc(OC)cc4)n23)cc1 [Compound 87] | 17.3 | 1.73E−05 | 17.3 | 1.73E−05 | 17.3 | 1.73E−05 | 7.3 | 17.3 | 17.3 | 1.73E−05 | 17.3 | 1.73E−05 | 17.3 | 1.73E−05 | 17.3 | 1.73E−05 | 18.3 | 1.73E−05 | 17.3 | 1.73E−05 | CC50 [1, 13]: 17.3 µM; CC50 [2, 14]: 17.3 µM; CC50 [3, 15]: 17.3 µM; CC50 at 48 h [4, 16]: 17.3 µM; TGI H-MEC-1 ([5]; in M (unit assumed)): 1.73E−05; CC50 [7, 17]: 17.3 µM; CC50 [8, 18]: 17.3 µM; CC50 [9, 19]: 17.3 µM; CC50 [10, 20]: 17.3 µM; CC50 [11, 21]: 17.3 µM; CC50 [12, 22]: 17.3 µM
COc1nccc(-c2c3c(Cl)ccnc3n3c(N)nccc23)n1 [Compound 112] | 0.321 | 5.29E−06 | 7.65 | 1.91E−05 | 1.65 | 7.59E−06 | 1.27 | 6.34 | 1.4 | 8.66E−06 | 0.872 | 1.51E−06 | 1.38 | 4.35E−06 | 2.01 | 7.13E−06 | 0.716 | 1.72E−06 | 0.989 | 2.30E−06 | CC50 [1, 13]: 16.6 µM; CC50 [2, 14]: 30.6 µM; CC50 [3, 15]: 30.6 µM; CC50 at 48 h [4, 16]: 11.9 µM; TGI H-MEC-1 ([5]; in M (unit assumed)): 4.71E−06; CC50 [7, 17]: 30.6 µM; CC50 [8, 18]: 2.62 µM; CC50 [9, 19]: 30.6 µM; CC50 [10, 20]: 27.8 µM; CC50 [11, 21]: 3.06 µM; CC50 [12, 22]: 30.6 µM
Nc1nccc(-c2c3c(O)ccnc3n3c(N)nccc23)n1 [Variolin B1, variolin B, reference compound] | 1.2 | 2.13E−06 | 1.28 | 2.82E−06 | 1.14 | 2.90E−06 | 0.273 | 1.68 | 1.55 | 3.92E−06 | 0.0539 | 2.10E−06 | 0.985 | 2.21E−06 | 0.848 | 2.31E−06 | 0.893 | 2.10E−06 | 1.21 | 3.32E−06 | CC50 ([1]; read-out: LC50 MEL-28): 2.8 µM; CC50 ([2]; read-out: LC50 IGROV-ET): 34.1 µM; CC50 ([3]; read-out: LC50 IGROV): 34.1 µM; CC50 at 48 h [4]: 6.07 µM; TGI H-MEC-1 [5]: 7.50E−07; CC50 ([7]; read-out: LC50 K-562): 34.1 µM; CC50 ([8]; read-out: LC50 LN-caP): 1.41 µM; CC50 ([9]; read-out: LC50 A-549): 3.41 µM; CC50 ([10]; read-out: LC50 SK-BR-3): 27.7 µM; CC50 ([11]; read-out: LC50 DU-145): 19.9 µM; CC50 ([12]; read-out: LC50 SKOV-3): 34.1 µM
